# According to US20240360146A1, “BRUTON'S TYROSINE KINASE AND MUTANT DEGRADER, COMPOSITION AND APPLICATION THEREOF” (HANGZHOU HEALZEN THERAPEUTICS CO., LTD., priority 2021, published 2024):
# Molecular target: T1, BTK (Homo sapiens, UniProt Q06187)
# T1 construct: endogenous in cells; host or cells: Mino cells
# Test: BTK degradation activity test in Mino cells
# Assay type: cell-based
# Settings: 16 h incubation, Western blot or Elisa
# Summary of the method: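 DC50 derived by curve fitting of BTK degradation rates versus untreated control across compound concentrations. Mino cells were exposed for 16 h; BTK levels in lysates, normalised via BCA protein, measured by Western blot or ELISA.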
# T1 sequence (Q06187 whole entry): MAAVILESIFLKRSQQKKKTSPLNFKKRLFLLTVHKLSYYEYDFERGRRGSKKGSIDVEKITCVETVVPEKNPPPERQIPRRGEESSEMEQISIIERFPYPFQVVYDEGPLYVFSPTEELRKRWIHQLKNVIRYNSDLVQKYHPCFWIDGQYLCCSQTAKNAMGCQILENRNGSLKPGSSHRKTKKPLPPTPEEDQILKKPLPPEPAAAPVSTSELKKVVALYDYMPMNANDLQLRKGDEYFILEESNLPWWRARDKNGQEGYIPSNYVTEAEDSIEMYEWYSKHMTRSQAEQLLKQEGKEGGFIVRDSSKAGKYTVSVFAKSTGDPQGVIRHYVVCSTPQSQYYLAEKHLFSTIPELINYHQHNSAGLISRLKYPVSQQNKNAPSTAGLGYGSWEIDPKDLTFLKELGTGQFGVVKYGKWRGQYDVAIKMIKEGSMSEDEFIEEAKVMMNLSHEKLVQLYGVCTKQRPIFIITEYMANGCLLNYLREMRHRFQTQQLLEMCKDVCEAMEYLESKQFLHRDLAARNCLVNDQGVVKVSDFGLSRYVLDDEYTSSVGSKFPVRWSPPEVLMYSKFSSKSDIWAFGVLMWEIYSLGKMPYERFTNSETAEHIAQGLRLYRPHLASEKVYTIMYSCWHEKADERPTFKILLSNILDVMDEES
row,DC50 [nM],SMILES
1,< 1,"CN1CCN([C@@H]2CCCN(c3nnc(C(N)=O)c(Nc4ccc(N5CCN(CC6CCN(c7ccc(N8CCC(=O)NC8=O)c8cccnc78)CC6)CC5)c(F)c4)n3)C2)C1=O [Compound 199, (R)-5-((4-(4-((1-(5-(2,4-dioxotetrahydropyrimidin-1(2H)-yl)quinolin-8-yl)piperidin-4-yl)methyl)piperazin-1-yl)-3-fluorophenyl)amino)-3-(3-(3-methyl-2-oxoimidazolidin-1-yl)piperidin-1-yl)-1,2,4-triazin-6-carboxamide]"
2,< 1,"NC(=O)c1nnc(N2CCCC(N3CCN(c4ccccc4)C3=O)C2)nc1Nc1ccc(C2CCN(C3CCN(c4ccc5c(c4)C(=O)N(C4CCC(=O)NC4=O)C5=O)CC3)CC2)cc1 (centres unmarked) [Compound 096, 5-((4-(1′-(2-(2,6-dioxopiperidin-3-yl)-1,3-dioxoisoindol-5-yl)-[1,4′-bipiperidin]-4-yl)phenyl)amino)-3-(3-(2-oxo-3-phenylimidazolin-1-yl)piperidin-1-yl)-1,2,4-triazin-6-carboxamide]"
3,> 1,"NC(=O)c1ncc(N2CCCC(N3CCN(C4CCCC4)C3=O)C2)nc1Nc1ccc(C(=O)C2CCN(CC3CCN(c4ccc5c(c4)C(=O)N(C4CCC(=O)NC4=O)C5=O)CC3)CC2)cc1 (centres unmarked) [Compound 028, 5-(3-(3-cyclopentyl-2-oxoimidazolin-1-yl)piperidin-1-yl)-3-((4-(1-((1-(2-(2,6-dioxopiperidin-3-yl)-1,3-dioxoisoindolin-5-yl)piperidin-4-yl)methyl)piperidin-4-formyl)phenyl)amino)pyrazin-2-carboxamide]"
4,< 1,"CN1CCN([C@@H]2CCCN(c3nnc(C(N)=O)c(Nc4ccc(N5CCN(CC6CCN(c7ccc(N8CCC(=O)NC8=O)c8c7OCO8)CC6)CC5)c(F)c4)n3)C2)C1=O [Compound 190, (R)-5-((4-(4-((1-(7-(2,4-dioxotetrahydropyrimidin-1(2H)-yl)benzo[d][1,3]dioxacyclopent-4-yl)piperidin-4-yl)methyl)piperazin-1-yl)-3-fluorophenyl)amino)-3-(3-(3-methyl-2-oxoimidazolidin-1-yl)piperidin-1-yl)-1,2,4-triazin-6-carboxamide]"
5,< 1,"CN1CCN([C@@H]2CCCN(c3nnc(C(N)=O)c(Nc4ccc(N5CCN(CC6CCN(c7ccc8c(C9CCC(=O)NC9=O)nn(C)c8c7)C6)CC5)c(F)c4)n3)C2)C1=O (stereo partly drawn) [Compound 212, 5-((4-(4-((1-(3-(2,6-dioxopiperidin-3-yl)-1-methyl-1H-indazol-6-yl)pyrrolidin-3-yl)methyl)piperazin-1-yl)-3-fluorophenyl)amino)-3-((R)-3-(3-methyl-2-oxoimidazolidin-1-yl)piperidin-1-yl)-1,2,4-triazin-6-carboxamide]"
6,< 1,"CN1CCN(C2CC3CC2N(c2nnc(C(N)=O)c(Nc4ccc(C5CCN(CC6CCN(c7ccc8c(c7)CN(C7CCC(=O)NC7=O)C8=O)CC6)CC5)cc4)n2)C3)C1=O (centres unmarked) [Compound 113, 5-((4-(1-((1-(2-(2,6-dioxopiperidin-3-yl)-1-oxoisoindol-5-yl)piperidin-4-yl)methyl)piperidin-4-yl)phenyl)amino)-3-(6-(3-methyl-2-oxoimidazolin-1-yl)-2-azabicycloheptan-2-yl)-1,2,4-triazin-6-carboxamide]"
7,< 1,"CN1CCN([C@@H]2CCCN(c3nnc(C(N)=O)c(Nc4ccc(N5CCN(CC6CCN(c7cc8c(cc7F)C(=O)N(C7CCC(=O)NC7=O)C8=O)C6)CC5)c(F)c4)n3)C2)C1=O (stereo partly drawn) [Compound 169, 5-((4-(4-((1-(2-(2,6-dioxopiperidin-3-yl)-6-fluoro-1,3-dioxoisoindolin-5-yl)pyrrolidin-3-yl)methyl)piperazin-1-yl)-3-fluorophenyl)amino)-3-((R)-3-(3-methyl-2-oxoimidazolidin-1-yl)piperidin-1-yl)-1,2,4-triazin-6-carboxamide]"
8,< 1,"CN1CCN(C2CCCN(c3nnc(C(N)=O)c(Nc4ccc5c(c4)CCN(CC4CCN(c6ccc7c(c6)C(=O)N(C6CCC(=O)NC6=O)C7=O)CC4)C5)n3)C2)C1=O (centres unmarked) [Compound 081, 5-((2-((1-(2-(2,6-dioxopiperidin-3-yl)-1,3-dioxoisoindol-5-yl)piperidin-4-yl)methyl)-1,2,3,4-tetrahydroisoquinolin-6-yl)amino)-3-(3-(3-methyl-2-oxoimidazolin-1-yl)piperidin-1-yl)-1,2,4-triazin-6-carboxamide]"

# Second part, the compound before the results:
row,SMILES,DC50 [nM]
1,"CN1CCN([C@@H]2CCCN(c3nnc(C(N)=O)c(Nc4ccc(N5CCN(CC6CCN(c7ccc(N8CCC(=O)NC8=O)c(C8CC8)c7)CC6)CC5)c(F)c4)n3)C2)C1=O [Compound 194, (R)-5-((4-(4-((1-(3-cyclopropyl-4-(2,4-dioxotetrahydropyrimidin-1(2H)-yl)phenyl)piperidin-4-yl)methyl)piperazin-1-yl)-3-fluorophenyl)amino)-3-(3-(3-methyl-2-oxoimidazolidin-1-yl)piperidin-1-yl)-1,2,4-triazin-6-carboxamide]",< 1
2,"CN1CCN(C2CC3CC2N(c2nnc(C(N)=O)c(Nc4ccc(C5(C)CCN(C6CCN(c7ccc8c(c7)C(=O)N(C7CCC(=O)NC7=O)C8=O)CC6)CC5)cc4)n2)C3)C1=O (centres unmarked) [Compound 104, 5-((4-(1′-(2-(2,6-dioxopiperidin-3-yl)-1,3-dioxoisoindol-5-yl)-4-methyl-[1,4′-bipiperidin]-4-yl)phenyl)amino)-3-(6-(3-methyl-2-oxoimidazolin-1-yl)-2-azabicyclo[2.2.1]heptan-2-yl)-1,2,4-triazin-6-carboxamide]",< 1
3,"Cc1cc(N2CCC(CN3CCC(c4ccc(Nc5nc(N6CCC[C@@H](N7CCN(C)C7=O)C6)c(F)nc5C(N)=O)cc4F)CC3)CC2)ccc1N1CCC(=O)NC1=O [Compound 241, (R)-3-((4-(1-((1-(4-(2,4-dioxotetrahydropyrimidin-1(2H)-yl)-3-methylphenyl)piperidin-4-yl)methyl)piperidin-4-yl)-3-fluorophenyl)amino)-6-fluoro-5-(3-(3-methyl-2-oxoimidazolidin-1-yl)piperidin-1-yl)pyrazin-2-carboxamide]",< 1
4,"CN1CCN([C@@H]2CCCN(c3nnc(C(N)=O)c(Nc4ccc(N5CCN(C[C@H]6CCN(c7ccc(C(=O)N[C@H]8CCC(=O)NC8=O)nc7)C6)CC5)c(F)c4)n3)C2)C1=O [Compound 153, 5-((4-(4-(((R)-1-(6-(((S)-2,6-dioxopiperidin-3-yl)carbamoyl)pyridin-3-yl)pyrrolidin-3-yl)methyl)piperazin-1-yl)-3-fluorophenyl)amino)-3-((R)-3-(3-methyl-2-oxoimidazolin-1-yl)piperidin-1-yl)-1,2,4-triazin-6-carboxamide]",< 1
5,"CN1CCN(C2CC3CC2N(c2nnc(C(N)=O)c(Nc4ccc(C5(C)CCN(C6CN(c7ccc8c(c7)C(=O)N(C7CCC(=O)NC7=O)C8=O)C6)CC5)cc4)n2)C3)C1=O (centres unmarked) [Compound 105, 5-((4-(1-(1-(2-(2,6-dioxopiperidin-3-yl)-1,3-dioxoisoindol-5-yl)azetidin-3-yl)-4-methylpiperidin-4-yl)phenyl)amino)-3-(6-(3-methyl-2-oxoimidazolin-1-yl)-2-azabicyclo[2.2.1]heptan-2-yl)-1,2,4-triazin-6-carboxamide]",< 1
6,"Cn1c(=O)n(C2CCCN(c3cnc(C(N)=O)c(Nc4ccc(C5(C)CCN(C6CN(c7ccc8c(c7)C(=O)N(C7CCC(=O)NC7=O)C8=O)C6)CC5)cc4)n3)C2)c2ccccc21 (centres unmarked) [Compound 025, 3-((4-(1-(1-(2-(2,6-dioxopiperidin-3-yl)-1,3-dioxoisoindol-5-yl)azetidin-3-yl)-4-methylpiperidin-4-yl)phenyl)amino)-5-(3-(3-methyl-2-oxo-2,3-dihydro-1H-benzo[d]imidazol-1-yl)piperidin-1-yl)pyrazin-2-carboxamide]",< 1
7,"NC(=O)c1nnc(N2CCCC(N3CCN(C4CCCCC4)C3=O)C2)nc1Nc1ccc(C2CCN(CC3CCN(c4ccc5c(c4)C(=O)N(C4CCC(=O)NC4=O)C5=O)CC3)CC2)cc1 (centres unmarked) [Compound 061, 3-(3-(3-cyclohexyl-2-oxoimidazolin-1-yl)piperidin-1-yl)-5-((4-(1-((1-(2-(2,6-dioxopiperidin-3-yl)-1,3-dioxoisoindol-5-yl)piperidin-4-yl)methyl)piperidin-4-yl)phenyl)amino)-1,2,4-triazin-6-carboxamide]",< 1
8,CN1CCN(C2CCCN(c3nnc(C(N)=O)c(Nc4ccc(N5CCC(N6CCN(CC#Cc7ccc8c(c7)CN(C7CCC(=O)NC7=O)C8=O)CC6)CC5)cc4)n3)C2)C1=O (centres unmarked) [Compound 084],< 1
9,"CN1CCN(C2CCCN(c3nnc(C(N)=O)c(Nc4ccc(C5CCN(CC6CCN(c7ccc8c(c7)C(=O)N(C7CCC(=O)NC7=O)C8=O)C6)CC5)cc4)n3)C2)C1=O (centres unmarked) [Compound 076, 5-((4-(1-((1-(2-(2,6-dioxopiperidin-3-yl)-1,3-dioxoisooctyl-5-yl)pyrrolidin-3-yl)methyl)piperidin-4-yl)phenyl)amino)-3-(3-(3-methyl-2-oxoimidazolin-1-yl)piperidin-1-yl)-1,2,4-triazin-6-carboxamide]",< 1
10,"NC(=O)c1nnc(N2CCCC(N3CCN(c4ccccc4)C3=O)C2)nc1Nc1ccc(C2CCN(C3CN(c4ccc5c(c4)C(=O)N(C4CCC(=O)NC4=O)C5=O)C3)CC2)cc1 (centres unmarked) [Compound 090, 5-((4-(1-(1-(2-(2,6-dioxopiperidin-3-yl)-1,3-dioxoisoindol-5-yl)azetidin-3-yl)piperidin-4-yl)phenyl)amino)-3-(3-(2-oxo-3-phenylimidazolin-1-yl)piperidin-1-yl)-1,2,4-triazin-6-carboxamide]",< 1
11,"CN1CCN([C@@H]2CCCN(c3nnc(C(N)=O)c(Nc4ccc(N5CCN(CC6CCN(c7ccc8c(C9CCC(=O)NC9=O)noc8c7)CC6)CC5)c(F)c4)n3)C2)C1=O (stereo partly drawn) [Compound 243, 5-((4-(4-((1-(3-(2,6-dioxopiperidin-3-yl)benzo[d]isoxazol-6-yl)piperidin-4-yl)methyl)piperazin-1-yl)-3-fluorophenyl)amino)-3-((R)-3-(3-methyl-2-oxoimidazolidin-1-yl)piperidin-1-yl)-1,2,4-triazin-6-carboxamide]",< 1
12,CN1CCN(C2CC3CC2N(c2nnc(C(N)=O)c(Nc4ccc(N5CCC(N6CCN(CC#Cc7ccc8c(c7)CN(C7CCC(=O)NC7=O)C8=O)CC6)CC5)cc4)n2)C3)C1=O (centres unmarked) [Compound 110],< 1
